molecular target: T1, human TREM2 (Homo sapiens, UniProt Q9NZC2); test: TREM2 agonist potency by cellular phosphorylation of Spleen Tyrosine Kinase (Syk), AlphaLisa, HEK293T-hTREM2 cells; format: cell-based; settings: not given
T1 construct: expressed in transfected cells; host or cells: HEK293T (HEK293T-hTREM2 cells)
Protocol: Measurement of TREM2 agonist potency was done using a HEK cell line expressing human TREM2 and DAP12 (HEK293T-hTREM2 cells). Binding of small molecules to, and activation of, TREM2 increases the phosphorylation of Syk. The resultant levels of Syk phosphorylation are measured using a commercial AlphaLisa reagent kit. To perform the assay, HEK-hTREM2 cells were plated at 14,000 cells per well in a 384 well plate, in 25 μL of complete growth media and incubated at 37° C., 5% CO2 for 20-24 hours.
Prior to the assay, test compounds were diluted in the 384 well plates in assay buffer and allowed to equilibrate for 30 minutes. Growth media was removed from cell plates by inversion on blotting paper, and 25 μL of test articles in assay buffer was added to cells. Cells were incubated for 45 minutes at room temperature. After 45 minutes, assay buffer was removed and 10 μL of lysis buffer was added. Plates were shaken for 20 minutes at 350 RPM at room temperature. After complete lysis, AlphaLisa reagents were added to the lysate, and fluorescence intensity was measured using a Perkin Elmer Envision plate reader. Intensities were used to generate a standard curve, and % activation was calculated. Curve fitting was performed using Prism v9 software, log (agonist) vs response-variable slope (four parameters), and EC50s were calculated from the curve fit.
The results presented in Table B have been generated with the in vitro assay described above. This assay may be used to test any of the compounds described herein to assess and characterize a compound's ability to act as an agonist of TREM2.

T1 sequence (Q9NZC2 19-230): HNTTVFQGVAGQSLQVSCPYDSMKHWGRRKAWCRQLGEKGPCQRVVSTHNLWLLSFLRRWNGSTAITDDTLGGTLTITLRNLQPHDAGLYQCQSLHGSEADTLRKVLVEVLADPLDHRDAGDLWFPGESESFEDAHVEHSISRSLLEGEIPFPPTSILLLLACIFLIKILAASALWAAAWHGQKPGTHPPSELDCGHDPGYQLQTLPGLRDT
T1 sequence (O43914 22-113 partner): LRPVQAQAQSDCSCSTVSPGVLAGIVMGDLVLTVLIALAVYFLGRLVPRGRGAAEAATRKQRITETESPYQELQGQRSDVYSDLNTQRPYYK

Row | Structure (SMILES) | EC50
1 | [2H]C([2H])([2H])C([2H])(n1cc([C@H]2C[C@@H](c3nc(C45CC(C(F)(F)F)(C4)C5)c4nc(C)c(C)nc4n3)CCO2)ccc1=O)C([2H])([2H])[2H] [Example 88, 5-[(2R,4S)-4-[6,7-dimethyl-4-[3-(trifluoromethyl)-1-bicyclo[1.1.1]pentanyl]pteridin-2-yl]tetrahydropyran-2-yl]-1-[1,2,2,2-tetradeuterio-1-(trideuteriomethyl)ethyl]pyridin-2-one] | < 100 nM

same assay, conditions: hTREM2 EC50 Data (HEK293 Cells); Syk phosphorylation, AlphaLisa; read-out: hTREM2 EC50

Row | Structure (SMILES) | EC50
2 | Cc1nc2nc([C@H]3C[C@@H](C)O[C@@H](c4ccc(=O)n(C)c4)C3)nc(C34CC(C(F)(F)F)(C3)C4)c2nc1C [Example 56, 5-[(2R,4S,6R)-4-[6,7-dimethyl-4-[3-(trifluoromethyl)-1-bicyclo[1.1.1]-pentanyl]pteridin-2-yl]-6-methyl-tetrahydropyran-2-yl]-1-methyl-pyridin-2-one] | < 100 nM
3 | Cc1nc2nc([C@H]3CCO[C@@H](c4ccc(=O)n(C)c4)C3)nc(C34CCC(C(C)(F)F)(CC3)C4)c2nc1C [Example 60, 5-((2R,4S)-4-(4-(4-(1,1-difluoroethyl)bicyclo[2.2.1]heptan-1-yl)-6,7-dimethylpteridin-2-yl)tetrahydro-2H-pyran-2-yl)-1-methylpyridin-2(1H)-one] | < 100 nM
4 | Cc1nc2nc(N3C[C@@H](C)O[C@@H](c4ccc(=O)n(C)c4)C3)nc(C34CC(C(F)(F)F)(C3)C4)c2nc1C [Example 62, 5-[(2S,6R)-4-[6,7-dimethyl-4-[3-(trifluoro-methyl)-1-bicyclo[1.1.1]pentanyl]pteridin-2-yl]-6-methyl-morpholin-2-yl]-1-methyl-pyridin-2-one] | < 100 nM
5 | Cc1nc2nc([C@H]3CCO[C@@H](c4ccc(=O)n(C5CC5)c4)C3)nc(-c3ccc(C(F)(F)F)cc3F)c2nc1C [Example 64, 1-cyclopropyl-5-[(2R,4S)-4-[4-[2-fluoro-4-(trifluoromethyl)phenyl]-6,7-dimethyl-pteridin-2-yl]tetrahydropyran-2-yl]pyridin-2-one] | < 100 nM
6 | Cc1nc2nc([C@@H]3CCO[C@H](c4ccc(=O)n(C5CC5)c4)C3)nc(-c3ccc(C(F)(F)F)cc3F)c2nc1C [Example 65, 1-cyclopropyl-5-[(2S,4R)-4-[4-[2-fluoro-4-(trifluoromethyl)phenyl]-6,7-dimethyl-pteridin-2-yl]tetrahydropyran-2-yl]pyridin-2-one] | < 100 nM
7 | Cc1nc2nc([C@@H]3CCO[C@@H](c4ccc(=O)n(C5CC5)c4)C3)nc(-c3ccc(C(F)(F)F)cc3F)c2nc1C [Example 66, 1-cyclopropyl-5-[(2R,4R)-4-[4-[2-fluoro-4-(trifluoromethyl)phenyl]-6,7-dimethyl-pteridin-2-yl]tetrahydropyran-2-yl]pyridin-2-one] | < 100 nM
8 | Cc1nc2nc([C@H]3CCO[C@@H](c4ccc(=O)n(C(C)C)c4)C3)nc(-c3ccc(C(F)(F)F)cc3F)c2nc1C [Example 68, 1-isopropyl-5-[(2R,4S)-4-[4-[2-fluoro-4-(trifluoromethyl)-phenyl]-6,7-dimethyl-pteridin-2-yl]tetrahydropyran-2-yl]pyridin-2-one] | < 100 nM
9 | Cc1nc2nc([C@@H]3CCO[C@H](c4ccc(=O)n(C(C)C)c4)C3)nc(-c3ccc(C(F)(F)F)cc3F)c2nc1C [Example 69, 1-isopropyl-5-[(2S,4R)-4-[4-[2-fluoro-4-(trifluoromethyl)-phenyl]-6,7-dimethyl-pteridin-2-yl]tetrahydropyran-2-yl]pyridin-2-one] | < 100 nM
10 | Cc1nc2nc([C@H]3CCO[C@@H](c4ccc(=O)n(CC(F)F)c4)C3)nc(C34CC(C(F)(F)F)(C3)C4)c2nc1C [Example 71, 1-(2,2-difluoroethyl)-5-[(2R,4S)-4-[6,7-dimethyl-4-[3-(trifluoromethyl)-1-bicyclo[1.1.1]pentanyl]pteridin-2-yl]tetrahydropyran-2-yl]pyridin-2-one] | < 100 nM
11 | Cc1nc2nc([C@@H]3CCO[C@H](c4ccc(=O)n(CC(F)F)c4)C3)nc(C34CC(C(F)(F)F)(C3)C4)c2nc1C [Example 72, 1-(2,2-difluoroethyl)-5-[(2S,4R)-4-[6,7-dimethyl-4-[3-(trifluoro-methyl)-1-bicyclo-[1.1.1]pentanyl]-pteridin-2-yl]tetrahydropyran-2-yl]pyridin-2-one] | < 100 nM
12 | Cc1nc2nc([C@H]3CCO[C@@H](c4ccc(=O)n(C5CC5)c4)C3)nc(C34CC(C(F)(F)F)(C3)C4)c2nc1C [Example 74, 1-cyclopropyl-5-[(2R,4S)-4-[6,7-dimethyl-4-[3-(trifluoromethyl)-1-bicyclo[1.1.1]pentanyl]pteridin-2-yl]tetrahydropyran-2-yl]pyridin-2-one] | < 100 nM
13 | Cc1nc2nc([C@@H]3CCO[C@H](c4ccc(=O)n(C5CC5)c4)C3)nc(C34CC(C(F)(F)F)(C3)C4)c2nc1C [Example 75, 1-cyclopropyl-5-[(2S,4R)-4-[6,7-dimethyl-4-[3-(trifluoromethyl)-1-bicyclo[1.1.1]-pentanyl]-pteridin-2-yl]tetrahydropyran-2-yl]pyridin-2-one] | < 100 nM
14 | Cc1nc2nc([C@H]3CCO[C@@H](c4ccc(=O)n(C(C)C)c4)C3)nc(C34CC(C(F)(F)F)(C3)C4)c2nc1C [Example 77, 1-isopropyl-5-[(2R,4S)-4-[6,7-dimethyl-4-[3-(trifluoromethyl)-1-bicyclo[1.1.1]-pentanyl]pteridin-2-yl]tetrahydropyran-2-yl]pyridin-2-one] | < 100 nM
15 | Cc1nc2nc([C@@H]3CCO[C@H](c4ccc(=O)n(C(C)C)c4)C3)nc(C34CC(C(F)(F)F)(C3)C4)c2nc1C [Example 78, 1-isopropyl-5-[(2S,4R)-4-[6,7-dimethyl-4-[3-(trifluoromethyl)-1-bicyclo[1.1.1]-pentanyl]pteridin-2-yl]tetrahydropyran-2-yl]pyridin-2-one] | < 100 nM
16 | CCn1cc([C@H]2C[C@@H](c3nc(C45CC(C(F)(F)F)(C4)C5)c4nc(C)c(C)nc4n3)CCO2)ccc1=O [Example 80, 5-[(2R,4S)-4-[6,7-dimethyl-4-[3-(trifluoromethyl)-1-bicyclo[1.1.1]pentanyl]pteridin-2-yl]tetrahydropyran-2-yl]-1-ethyl-pyridin-2-one] | < 100 nM
17 | COCCn1cc([C@H]2C[C@@H](c3nc(C45CC(C(F)(F)F)(C4)C5)c4nc(C)c(C)nc4n3)CCO2)ccc1=O [Example 82, 5-[(2R,4S)-4-[6,7-dimethyl-4-[3-(trifluoromethyl)-1-bicyclo[1.1.1]pentanyl]pteridin-2-yl]tetrahydropyran-2-yl]-1-(2-methoxyethyl)pyridin-2-one] | < 100 nM
18 | Cc1nc2nc([C@H]3CCO[C@@H](c4ccc(=O)n(CCO)c4)C3)nc(C34CC(C(F)(F)F)(C3)C4)c2nc1C [Example 84, 5-[(2R,4S)-4-[6,7-dimethyl-4-[3-(trifluoromethyl)-1-bicyclo[1.1.1]pentanyl]pteridin-2-yl]tetrahydropyran-2-yl]-1-(2-hydroxyethyl)pyridin-2-one] | < 100 nM
19 | Cc1nc2nc([C@H]3CCO[C@@H](c4ccc(=O)n(CC#N)c4)C3)nc(C34CC(C(F)(F)F)(C3)C4)c2nc1C [Example 86, 2-[5-[(2R,4S)-4-[6,7-dimethyl-4-[3-(trifluoromethyl)-1-bicyclo[1.1.1]pentanyl]pteridin-2-yl]tetrahydropyran-2-yl]-2-oxo-1-pyridyl]acetonitrile] | < 100 nM
20 | Cc1nc2nc([C@H]3CCO[C@@H](c4ccc(=O)n(C(F)F)c4)C3)nc(C34CC(C(F)(F)F)(C3)C4)c2nc1C [Example 90] | < 100 nM
